Measurements as given in patent US9737075B2, “Synergistic benzoxaborole-containing anti-fungicidal composition” (The Penn State Research Foundation, priority 2015, dated 2017).
In brackets after ≈: the same amount, converted by molar mass. Where two headings read alike, the source gives them in different places.

Legend:
Type in all cases: cell-based
Alternaria solani = assay: Broth microdilution MIC of individual antifungals; conditions: for MIC: read-out: Independent MIC
Phytophthora pini = assay: Broth microdilution MIC of individual antifungals; conditions: individual antifungal, 25% PDB, about 25° C., 72 hours, range over N independent triplicate studies
Botrytis cinerea 10-1728 = assay: Broth microdilution MIC of individual antifungals; conditions: for MIC: read-out: Independent MIC
Stachybotrys chartarum = assay: Broth microdilution MIC of individual antifungals; conditions: individual antifungal, 25% PDB, about 25° C., 72 hours, range over N independent triplicate studies; for MIC: read-out: Independent MIC
Penicillium chrysogenum = assay: Broth microdilution MIC of individual antifungals; conditions: individual antifungal, 25% PDB, about 25° C., 72 hours, range over N independent triplicate studies
Botrytis cinerea B17 = assay: Broth microdilution MIC of individual antifungals; conditions: Botrytis cinerea B17, individual antifungal, 25% PDB, about 25° C., 72 hours, range over N independent triplicate studies; for MIC: read-out: Independent MIC
Fusarium graminearum = assay: microbe, parasite or virus in culture; conditions: for MIC: 72 h, read-out: Independent MIC
Aspergillus fumigatus = assay: Broth microdilution MIC of individual antifungals; conditions: for MIC: read-out: Independent MIC
Pythium aphanodermatum = assay: Broth microdilution MIC of individual antifungals; conditions: individual antifungal, 25% PDB, about 25° C., 72 hours, range over N independent triplicate studies
Mucor sp. = assay: Broth microdilution MIC of individual antifungals; conditions: individual antifungal, 25% PDB, about 25° C., 72 hours, range over N independent triplicate studies
[1] = system: Mycosphaerella zeae-maydis; assay: Broth microdilution MIC of individual antifungals; conditions: individual antifungal, 25% PDB, about 25° C., 72 hours, range over N independent triplicate studies; for MIC: Didymella maydis
Aureobasidium pullulans = assay: Broth microdilution MIC of individual antifungals; conditions: individual antifungal, 25% PDB, about 25° C., 72 hours, range over N independent triplicate studies, read-out: Independent MIC
Rhizopus sp. = assay: Broth microdilution MIC of individual antifungals; conditions: Rhizopus sp., individual antifungal, 25% PDB, about 25° C., 72 hours, range over N independent triplicate studies; for MIC: Rhizopus, 72 h, read-out: Independent MIC
Aspergillus flavus = assay: Broth microdilution MIC of individual antifungals; conditions: for MIC: read-out: Independent MIC
Sclerotinia homoeocarpa = assay: Broth microdilution MIC of individual antifungals; conditions: for MIC: Clarireedia homoeocarpa, read-out: Independent MIC
Fusarium verticillioides = assay: Broth microdilution MIC of individual antifungals; conditions: for MIC: read-out: Independent MIC
Aspergillus niger = assay: Broth microdilution MIC of individual antifungals; conditions: individual antifungal, 25% PDB, about 25° C., 72 hours, range over N independent triplicate studies; for MIC: read-out: Independent MIC
[2] = system: Fusarium solani f. sp. pisi (MP VI); assay: Broth microdilution MIC of individual antifungals; conditions: Fusarium solani f. sp. pisi (MP VI), individual antifungal, 25% PDB, about 25° C., 72 hours, range over N independent triplicate studies
Fusarium oxysporum ST33 = assay: Broth microdilution MIC of individual antifungals; conditions: individual antifungal, 25% PDB, about 25° C., 72 hours, range over N independent triplicate studies
[3] = system: Fusarium oxysporum f. sp. lycopersici; assay: Broth microdilution MIC of individual antifungals; conditions: individual antifungal, 25% PDB, about 25° C., 72 hours, range over N independent triplicate studies
Rhizoctonia solani = assay: Broth microdilution MIC of individual antifungals; conditions: for MIC: read-out: Independent MIC
[4] = system: Colletotrichum orbiculare; assay: Broth microdilution MIC of individual antifungals; conditions: individual antifungal, 25% PDB, about 25° C., 72 hours, range over N independent triplicate studies; for MIC: read-out: Independent MIC
Candida albicans = assay: Broth microdilution MIC of individual antifungals; conditions: individual antifungal, 25% PDB, about 25° C., 72 hours, range over N independent triplicate studies
Magnaporthe grisea = assay: microbe, parasite or virus in culture; conditions: for MIC: Pyricularia oryzae, 72 h, read-out: Independent MIC
[5] = individual antifungal, 25% PDB, about 25° C., 72 hours, range over N independent triplicate studies
[6] = Botrytis cinerea 10-1728, individual antifungal, 25% PDB, about 25° C., 72 hours, range over N independent triplicate studies
[7] = 101728, Botrytis cinerea 10-1728, individual antifungal, 25% PDB, about 25° C., 72 hours, range over N independent triplicate studies
[8] = Sclerotinia homoeocarpa, individual antifungal, 25% PDB, about 25° C., 72 hours, range over N independent triplicate studies

`CO/C=C(/C(=O)OC)c1ccccc1Oc1cc(Oc2ccccc2C#N)ncn1` [Azoxystrobin, azoxystrobin] was tested, and the “Independent MIC” value (Alternaria solani; [5]) was 100 mg/L, the “Independent MIC” value (Phytophthora pini) was 100 mg/L and the “Independent MIC” value (Botrytis cinerea 10-1728; [6]) was “(110-400) μg/mL”. The “Independent MIC” value (Stachybotrys chartarum) was “(25-50) μg/mL”, the “Independent MIC” value (Penicillium chrysogenum) was “(0.39-1.5) μg/mL” and the “Independent MIC” value (Botrytis cinerea B17) was “(12.5-25)^ μg/mL”. For the same compound, the “Independent MIC” value (Fusarium graminearum; Fusarium graminearum, individual antifungal, 25% PDB, about 25° C., 72 hours, range over N independent triplicate studies) was 400 mg/L, the “Independent MIC” value (Aspergillus fumigatus; [5]) was “(50-100) μg/mL” and the “Independent MIC” value (Pythium aphanodermatum) was 6.25 mg/L. For the same compound, the “Independent MIC” value (Mucor sp.) was 200 mg/L and the “Independent MIC” value [1] was 20 mg/L.

`Nc1ccc2c(c1)COB2O` [B2, 5-Amino-1,3-dihydro-2,1-benzoxaborol-1-ol] gave an MIC (Alternaria solani; [5]) of over 32 mg/L, an MIC (Aureobasidium pullulans) of over 32 mg/L and an MIC (Rhizopus sp.) of over 32 mg/L. For the same compound, the MIC (Aspergillus flavus; [5]) was over 32 mg/L, the MIC (Botrytis cinerea 10-1728; [7]) was over 32 mg/L and the MIC (Sclerotinia homoeocarpa; [8]) was over 32 mg/L. It also gave an MIC (Stachybotrys chartarum) of over 32 mg/L, an MIC (Fusarium verticillioides; [5]) of over 32 mg/L and an MIC (Aspergillus niger) of over 32 mg/L. For the same compound, the MIC ([2]; read-out: Independent MIC) was over 32 mg/L, the MIC (Botrytis cinerea B17) was over 32 mg/L and the MIC (Fusarium oxysporum ST33) was over 32 mg/L. It also gave an MIC (Aspergillus fumigatus; [5]) of over 32 mg/L, an MIC (Mucor sp.) of over 32 mg/L and an MIC [3] of over 32 mg/L. For the same compound, the MIC [1] was over 32 mg/L.

Work on `Cc1ccc(-c2c(Cl)nc(C#N)n2S(=O)(=O)N(C)C)cc1` [Cyazofamid, cyazofamid] yielded an MIC (Rhizoctonia solani; [5]) of 50 to 100 mg/L, an MIC (Botrytis cinerea 10-1728; [7]) of 200 to 400 mg/L and an MIC (Sclerotinia homoeocarpa; [8]) of 100 mg/L. It also gave an MIC (Fusarium verticillioides; [5]) of 200 mg/L, an MIC [4] of 50 to 100 mg/L and an MIC (Fusarium graminearum; Fusarium graminearum) of 100 mg/L (≈ 308 µM). For the same compound, the MIC [1] was 100 mg/L.

For `CC(C1CC1)C(O)(Cn1cncn1)c1ccc(Cl)cc1` (stereo not drawn) [Cyproconazole, cyproconazole], the MIC (Rhizoctonia solani; [5]) was 6.25 to 12.5 mg/L, the MIC (Rhizopus sp.) was 12.5 to 50 mg/L and the MIC (Aspergillus flavus; [5]) was 50 to 100 mg/L. For the same compound, the MIC (Botrytis cinerea 10-1728; [7]) was 0.78 to 2 mg/L, the MIC (Sclerotinia homoeocarpa; [8]) was 1.56 to 3.12 mg/L and the MIC (Fusarium verticillioides; [5]) was 3 to 3.12 mg/L. The MIC (Candida albicans; read-out: Independent MIC) was 100 to 400 mg/L, the MIC (Penicillium chrysogenum; read-out: Independent MIC) was 100 mg/L and the MIC (Aspergillus niger) was 25 mg/L. It also gave an MIC [4] of 6.25 to 12.5 mg/L, an MIC (Aspergillus fumigatus; [5]) of 12.5 to 25 mg/L and an MIC (Mucor sp.) of 100 to 200 mg/L. For the same compound, the MIC [1] was 3.12 to 6 mg/L.

For `CCOP(=O)(Sc1ccccc1)Sc1ccccc1` [Edifenphos, edifenphos], the MIC (Rhizoctonia solani; 72 h) was 200 to 400 mg/L, the MIC (Alternaria solani; 72 h) was 200 mg/L and the MIC (Phytophthora pini) was 100 mg/L. The MIC (Botrytis cinerea 10-1728; Botrytis cinerea, 101728, 72 h) was 100 to 200 mg/L, the MIC (Sclerotinia homoeocarpa; 72 h) was 3.12 to 6.25 mg/L and the MIC (Fusarium verticillioides; 72 h) was 200 to 400 mg/L. It also gave an MIC (Magnaporthe grisea) of 6.25 mg/L (≈ 20.1 µM), an MIC (Aspergillus fumigatus; 72 h) of 200 mg/L and an MIC (Mucor sp.) of 50 to 100 mg/L. For the same compound, the MIC [1] was 200 to 400 mg/L.

With `CC1(C(=O)Nc2ccc(O)c(Cl)c2Cl)CCCCC1` [Fenhexamid, fenhexamid] the MIC (Alternaria solani; [5]) was 100 to 200 mg/L, the MIC (Phytophthora pini) was 50 mg/L and the MIC (Aureobasidium pullulans) was 100 mg/L. For the same compound, the MIC (Aspergillus flavus; 72 h) was 3.12 to 6.25 mg/L, the MIC (Botrytis cinerea 10-1728; [7]) was 200 mg/L and the MIC (Sclerotinia homoeocarpa; [8]) was 64 mg/L. For the same compound, the MIC (Stachybotrys chartarum) was 12.5 mg/L, the MIC (Botrytis cinerea B17) was 4 mg/L and the MIC [4] was 100 to 200 mg/L. For the same compound, the MIC (Fusarium graminearum; Fusarium graminearum) was 25 to 50 mg/L (≈ 82.7 to 165 µM), the MIC (Magnaporthe grisea) was 3.12 mg/L (≈ 10.3 µM) and the MIC (Aspergillus fumigatus; [5]) was 400 mg/L. For the same compound, the MIC (Pythium aphanodermatum) was 0.78 to 0.8 mg/L, the MIC (Mucor sp.) was 100 mg/L and the MIC [1] was 100 to 200 mg/L.

In the case of `[Cl][Sn]([c]1ccccc1)([c]1ccccc1)[c]1ccccc1` [Fentin Chloride, fentin chloride], the “Independent MIC” value (Rhizoctonia solani; [5]) is reported as “(12.5-25)^ μg/mL”, the “Independent MIC” value (Alternaria solani; [5]) is reported as “(10-12.5) μg/mL” and the “Independent MIC” value (Phytophthora pini) is reported as 0.098 mg/L. For the same compound, the “Independent MIC” value (Rhizopus sp.) was “(0.39-0.78) μg/mL”, the “Independent MIC” value (Aspergillus flavus; [5]) was “(0.78-1) μg/mL” and the “Independent MIC” value (Botrytis cinerea 10-1728; [6]) was “(50-100) μg/mL”. For the same compound, the “Independent MIC” value (Sclerotinia homoeocarpa; [8]) was 12.5 mg/L, the “Independent MIC” value (Fusarium verticillioides; [5]) was “(6.25-12.5) μg/mL” and the “Independent MIC” value (Candida albicans) was “(0.78-1.56) μg/mL”. The “Independent MIC” value (Penicillium chrysogenum) was “(0.1-0.2) μg/mL”, the “Independent MIC” value (Aspergillus niger) was “(0.78-1) μg/mL” and the “Independent MIC” value [2] was “(0.78-3.12) μg/mL”. For the same compound, the “Independent MIC” value [4] was 1.56 mg/L, the “Independent MIC” value (Fusarium graminearum) was “(50-200) μg/mL” and the “Independent MIC” value (Magnaporthe grisea) was 1.25 mg/L. The “Independent MIC” value (Aspergillus fumigatus; [5]) was 0.78 mg/L, the “Independent MIC” value (Mucor sp.) was “(1-1.56) μg/mL” and the “Independent MIC” value [1] was 50 mg/L.
